# Assay results taken from patent US11078228B2, “Ectonucleotidase inhibitors and methods of use thereof” (Calithera Biosciences, Inc., priority 2018, dated 2021).
# Biological target: recombinant CD73 (Homo sapiens (Human), UniProt P21589)
# Assay: Assay 2: Inhibition of the CD73 enzyme in vitro (0.05 nM CD73, 1 hour 37° C., Malachite Green)
# Assay type: biochemical
# Settings: 0.05 nM CD73, 50 μM AMP, 1 hour at 37° C.
# In short: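 Soluble recombinant CD73 reactions ran 1 hour at 37° C. Malachite Green was then added, and absorbance at 630 nm was read after 5 min at room temperature. Inorganic phosphate was quantified from a phosphate standard curve.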
# Chain of recombinant CD73 (P21589 27-547): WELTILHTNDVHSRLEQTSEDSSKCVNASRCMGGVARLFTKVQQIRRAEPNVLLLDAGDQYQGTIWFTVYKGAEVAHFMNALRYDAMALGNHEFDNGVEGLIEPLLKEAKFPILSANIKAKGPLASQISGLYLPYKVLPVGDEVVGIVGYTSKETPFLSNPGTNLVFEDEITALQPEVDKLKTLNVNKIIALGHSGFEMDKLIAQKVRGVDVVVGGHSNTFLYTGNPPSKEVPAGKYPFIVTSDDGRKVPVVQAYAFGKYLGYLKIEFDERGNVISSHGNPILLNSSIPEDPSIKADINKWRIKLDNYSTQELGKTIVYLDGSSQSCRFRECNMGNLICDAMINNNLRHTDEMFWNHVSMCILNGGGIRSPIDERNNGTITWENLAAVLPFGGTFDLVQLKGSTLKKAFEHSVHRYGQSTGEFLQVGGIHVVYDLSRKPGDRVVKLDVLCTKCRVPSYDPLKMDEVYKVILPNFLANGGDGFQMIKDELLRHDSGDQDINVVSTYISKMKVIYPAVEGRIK
row,IC50 [nM],SMILES
1,3,"C#C[C@@]1(O)[C@@H](COC(Cc2ccccc2)(C(=O)O)C(=O)O)O[C@@H](n2cnc3c(N(CC)CC)nc(Cl)nc32)[C@@H]1O [Example 96, 2-benzyl-2-(((2R,3S,4R,5R)-5-(2-chloro-6-(diethylamino)-9H-purin-9-yl)-3-ethynyl-3,4-dihydroxytetrahydrofuran-2-yl)methoxy)malonic acid]"
2,2,"C#C[C@@]1(O)[C@@H](COC(Cc2ccc(N3CCN(C)CC3=O)cc2)(C(=O)O)C(=O)O)O[C@@H](n2cnc3c(N)nc(Cl)nc32)[C@@H]1O [Example 154, 2-(((2R,3S,4R,5R)-5-(6-amino-2-chloro-9H-purin-9-yl)-3-ethynyl-3,4-dihydroxytetrahydrofuran-2-yl)methoxy)-2-(4-(4-methyl-2-oxopiperazin-1-yl)benzyl)malonic acid]"
3,40,"C#C[C@@]1(O)[C@@H](COC(Cc2ccccc2)(C(=O)O)C(=O)O)O[C@@H](n2cnc3c(N)nc(C(N)=O)nc32)[C@@H]1O [Example 122, 2-(((2R,3S,4R,5R)-5-(6-amino-2-carbamoyl-9H-purin-9-yl)-3-ethynyl-3,4-dihydroxytetrahydrofuran-2-yl)methoxy)-2-benzylmalonic acid]"
4,0.08,"C#C[C@@]1(O)[C@@H](COC(Cc2ccc(N3CCCN(C)C3=O)cc2)(C(=O)O)C(=O)O)O[C@@H](n2cnc3c(NC)nc(Cl)nc32)[C@@H]1O [Example 148, 2-(((2R,3S,4R,5R)-5-(2-chloro-6-(methylamino)-9H-purin-9-yl)-3-ethynyl-3,4-dihydroxytetrahydrofuran-2-yl)methoxy)-2-(4-(3-methyl-2-oxotetrahydropyrimidin-1 (2H)-yl)benzyl)malonic acid]"
5,20,"C#C[C@@]1(O)[C@@H](COC(CC=C)(C(=O)O)C(=O)O)O[C@@H](n2cnc3c(N)nc(Cl)nc32)[C@@H]1O [Example 15, 2-allyl-2-(((2R,3S,4R,5R)-5-(6-amino-2-chloro-9H-purin-9-yl)-3-ethynyl-3,4-dihydroxytetrahydrofuran-2-yl)methoxy)malonic acid]"
6,561,"C#C[C@@]1(O)[C@@H](COC(Cc2ccccc2)(C(=O)O)C(=O)O)O[C@@H](n2cnc3c(N)nc(C(C)O)nc32)[C@@H]1O (stereo partly drawn) [Example 161, 2-(((2R,3S,4R,5R)-5-(6-amino-2-(1-hydroxyethyl)-9H-purin-9-yl)-3-ethynyl-3,4-dihydroxytetrahydrofuran-2-yl)methoxy)-2-benzylmalonic acid]"
7,0.31,"C#C[C@@]1(O)[C@@H](COC(Cc2ccc(-c3cccn(CCC)c3=O)cc2)(C(=O)O)C(=O)O)O[C@@H](n2cnc3c(NC)nc(Cl)nc32)[C@@H]1O [Example 160, 2-(((2R,3S,4R,5R)-5-(2-chloro-6-(methylamino)-9H-purin-9-yl)-3-ethynyl-3,4-dihydroxytetrahydrofuran-2-yl)methoxy)-2-(4-(2-oxo-1-propy-1,2-dihydropyridin-3-yl)benzyl)malonic acid]"
8,7,"C#C[C@@]1(O)[C@@H](COC(Cc2ccccc2)(C(=O)O)C(=O)O)O[C@@H](n2cnc3c(N[C@@H](C)CO)nc(Cl)nc32)[C@@H]1O [Example 95, 2-benzyl-2-(((2R,3S,4R,5R)-5-(2-chloro-6-(((S)-1-hydroxypropan-2-yl)amino)-9H-purin-9-yl)-3-ethynyl-3,4-dihydroxytetrahydrofuran-2-yl)methoxy)malonic acid]"
9,1,"C#C[C@@]1(O)[C@@H](COC(Cc2ccccc2)(C(=O)O)C(=O)O)O[C@@H](n2cnc3c(N4CC(CO)C4)nc(Cl)nc32)[C@@H]1O [Example 46, 2-benzyl-2-(((2R,3S,4R,5R)-5-(2-chloro-6-(3-(hydroxymethyl)azetidin-1-yl)-9H-purin-9-yl)-3-ethynyl-3,4-dihydroxytetrahydrofuran-2-yl)methoxy)malonic acid]"
10,0.48,"C#C[C@@]1(O)[C@@H](COC(Cc2ccc(-c3cccn(CCO)c3=O)cc2)(C(=O)O)C(=O)O)O[C@@H](n2cnc3c(NC(C)C)nc(Cl)nc32)[C@@H]1O [Example 153, 2-(((2R,3S,4R,5R)-5-(2-chloro-6-(isopropylamino)-9H-purin-9-yl)-3-ethynyl-3,4-dihydroxytetrahydrofuran-2-yl)methoxy)-2-(4-(1-(2-hydroxyethyl)-2-oxo-1,2-dihydropyridin-3-yl)benzyl)malonic acid]"
11,3,"C#C[C@@]1(O)[C@@H](COC(Cc2ccccc2)(C(=O)O)C(=O)O)O[C@@H](n2cnc3c(NCc4cccnc4)nc(Cl)nc32)[C@@H]1O [Example 84, 2-benzyl-2-(((2R,3S,4R,5R)-5-(2-chloro-6-((pyridin-3-ylmethyl)amino)-9H-purin-9-yl)-3-ethynyl-3,4-dihydroxytetrahydrofuran-2-yl)methoxy)malonic acid]"
12,6,"C#C[C@@]1(O)[C@@H](COC(Cc2ccccc2)(C(=O)O)C(=O)O)O[C@@H](n2cnc3c(NC)nc(Cl)nc32)[C@@H]1O [Example 71, 2-benzyl-2-(((2R,3S,4R,5R)-5-(2-chloro-6-(methylamino)-9H-purin-9-yl)-3-ethynyl-3,4-dihydroxytetrahydrofuran-2-yl)methoxy)malonic acid]"
13,235,"C#C[C@@]1(O)[C@@H](COC(Cc2ccccc2)(C(=O)O)C(=O)O)O[C@@H](n2cnc3ccc(C(F)(F)F)nc32)[C@@H]1O [Example 125, 2-benzyl-2-(((2R,3S,4R,5R)-3-ethynyl-3,4-dihydroxy-5-(5-(trifluoromethyl)-3H-imidazo[4,5-b]pyridin-3-yl)tetrahydrofuran-2-yl)methoxy)malonic acid]"
14,48,"C#C[C@@]1(O)[C@@H](COC(C(=O)O)C(=O)O)O[C@@H](n2cnc3c(NCc4ccccc4)nc(Cl)nc32)[C@@H]1O [Example 118, 2-(((2R,3S,4R,5R)-5-(6-(benzylamino)-2-chloro-9H-purin-9-yl)-3-ethynyl-3,4-dihydroxytetrahydrofuran-2-yl)methoxy)malonic acid]"
15,4,"C#C[C@@]1(O)[C@@H](COC(Cc2ccccc2)(C(=O)O)C(=O)O)O[C@@H](n2cnc3c(N4CCOCC4)nc(Cl)nc32)[C@@H]1O [Example 79, 2-benzyl-2-(((2R,3S,4R,5R)-5-(2-chloro-6-morpholino-9H-purin-9-yl)-3-ethynyl-3,4-dihydroxytetrahydrofuran-2-yl)methoxy)malonic acid]"
16,0.3,"C#C[C@@]1(O)[C@@H](COC(Cc2ccc(-c3ccccc3)cc2)(C(=O)O)C(=O)O)O[C@@H](n2cnc3c(N)nc(Cl)nc32)[C@@H]1O [Example 53, 2-([1,1′-biphenyl]-4-ylmethyl)-2-(((2R,3S,4R,5R)-5-(6-amino-2-chloro-9H-purin-9-yl)-3-ethynyl-3,4-dihydroxytetrahydrofuran-2-yl)methoxy)malonic acid]"
17,0.16,"C#C[C@@]1(O)[C@@H](COC(Cc2ccc(N3CCCN(C)C3=O)cc2)(C(=O)O)C(=O)O)O[C@@H](n2cnc3c(NCC4CC4)nc(Cl)nc32)[C@@H]1O [Example 150, 2-(((2R,3S,4R,5R)-5-(2-chloro-6-((cyclopropylmethyl)amino)-9H-purin-9-yl)-3-ethynyl-3,4-dihydroxytetrahydrofuran-2-yl)methoxy)-2-(4-(3-methyl-2-oxotetrahydropyrimidin-1 (2H)-yl)benzyl)malonic acid]"
18,0.1,"C#C[C@@]1(O)[C@@H](COC(Cc2ccc(-c3ccc[nH]c3=O)cc2)(C(=O)O)C(=O)O)O[C@@H](n2cnc3c(N)nc(Cl)nc32)[C@@H]1O [Example 12, 2-(((2R,3S,4R,5R)-5-(6-amino-2-chloro-9H-purin-9-yl)-3-ethynyl-3,4-dihydroxytetrahydrofuran-2-yl)methoxy)-2-(4-(2-oxo-1,2-dihydropyridin-3-yl)benzyl)malonic acid]"
19,14,"C#C[C@@]1(O)[C@@H](COC(Cc2ccccc2)(C(=O)O)C(=O)O)O[C@@H](n2cnc3c(NO)nc(Cl)nc32)[C@@H]1O [Example 168, 2-benzyl-2-(((2R,3S,4R,5R)-5-(2-chloro-6-(hydroxyamino)-9H-purin-9-yl)-3-ethynyl-3,4-dihydroxytetrahydrofuran-2-yl)methoxy)malonic acid]"
20,2,"C#C[C@@]1(O)[C@@H](COC(Cc2ccccc2)(C(=O)O)C(=O)O)O[C@@H](n2cnc3c(NCc4ccncc4)nc(Cl)nc32)[C@@H]1O [Example 78, 2-benzyl-2-(((2R,3S,4R,5R)-5-(2-chloro-6-((pyridin-4-ylmethyl)amino)-9H-purin-9-yl)-3-ethynyl-3,4-dihydroxytetrahydrofuran-2-yl)methoxy)malonic acid]"
21,347,"C#C[C@@]1(O)[C@@H](COC(C)(C(=O)O)C(=O)O)O[C@@H](n2cnc3c(N)nc(Cl)nc32)[C@@H]1O [Example 17, 2-(((2R,3S,4R,5R)-5-(6-amino-2-chloro-9H-purin-9-yl)-3-ethynyl-3,4-dihydroxytetrahydrofuran-2-yl)methoxy)-2-methylmalonic acid]"
22,9,"C#C[C@@]1(O)[C@@H](COC(Cc2cscn2)(C(=O)O)C(=O)O)O[C@@H](n2cnc3c(N)nc(Cl)nc32)[C@@H]1O [Example 126, 2-(((2R,3S,4R,5R)-5-(6-amino-2-chloro-9H-purin-9-yl)-3-ethynyl-3,4-dihydroxytetrahydrofuran-2-yl)methoxy)-2-(thiazol-4-ylmethyl)malonic acid]"
23,4,"C#C[C@@]1(O)[C@@H](COC(Cc2ccccc2)(C(=O)O)C(=O)O)O[C@@H](n2cnc3c(NC[C@H](C)O)nc(Cl)nc32)[C@@H]1O [Example 36, 2-benzyl-2-(((2R,3S,4R,5R)-5-(2-chloro-6-(((S)-2-hydroxypropyl)amino)-9H-purin-9-yl)-3-ethynyl-3,4-dihydroxytetrahydrofuran-2-yl)methoxy)malonic acid]"
24,6,"C#C[C@@]1(O)[C@@H](COC(Cc2ccccc2)(C(=O)O)C(=O)O)O[C@@H](n2cnc3c(NCC(=O)O)nc(Cl)nc32)[C@@H]1O [Example 76, 2-benzyl-2-(((2R,3S,4R,5R)-5-(6-((carboxymethyl)amino)-2-chloro-9H-purin-9-yl)-3-ethynyl-3,4-dihydroxytetrahydrofuran-2-yl)methoxy)malonic acid]"
